# Laboratory results published in patent US8476449B2, “Radioactive iodine labeled organic compound or salt thereof” (Nihon Medi-Physics Co., Ltd., priority 2010, dated 2013).
# Read-outs that look alike come from different tables or passages of the source.
# Key:
# [1] = target: T1, Aβ42 aggregate (Homo sapiens, UniProt P05067); test: Inhibition constant toward Aβ42 aggregate (thioflavin S competition); assay type: binding; conditions: thioflavin S as ligand, read-out: Ki values (Aβ42 in Table 5)
# T1 construct: Aβ (1-42) peptide; purchased Peptide Institute, Inc
# Experimental: (§1) First, the dissociation constant (Kd) of thioflavin S used as a competitive ligand was first determined by a saturation experiment in order to calculate inhibition constants of compounds 1 to 3. That is, a mixed solution of a 10 vol % ethanol aqueous solution of thioflavin S (0.1-12.8 μmol/L) and the tau protein aggregate (final concentration 0.2 μmol/L, prepared in Example 9) or the Aβ42 aggregate (final concentration 2.2 μmol/L, prepared in Example 11) was incubated for 30 minutes, and the fluorescence intensity was measured using a fluorescence plate reader (FLEX STATION, Molecular Devices). The fluorescence intensity was measured at Ex 440 nm and Em 510 nm for the tau protein aggregate and Ex 440 nm and Em 490 nm for the Aβ42 aggregate. A saturation curve was prepared using GraphPad Prism, and the Kd value for thioflavin S was calculated.
# (§2) Next, a mixed solution of a 10 volt ethanol aqueous solution of thioflavin S (1.5 μmol/L) and a test compound (0.6 nmol/L to 10 μmol/L) together with the tau protein aggregate (final concentration 0.2 μmol/L, prepared in Example 9) or the Aβ42 aggregate (final concentration 10 μg/ml, prepared in Example 11) was incubated for 30 minutes. Then, the fluorescence intensities at Ex 440 nm and Em 510 nm for the tau protein aggregate and Ex 440 nm and Em 490 nm for the Aβ42 aggregate were measured using a fluorescence plate reader (FLEX STATION, Molecular Devices). GraphPad Prism inhibition curves were prepared, and Ki values of compounds 1 to 3 were determined using the above obtained Kd value of thioflavin S.
# [2] = target: T2, tau protein aggregate (Homo sapiens, UniProt P10636); test: Competitive inhibition experiment using thioflavin S (ThS) as ligand, fluorescence spectra; assay type: binding; set-up: made in house; host or cells: E. coli BL21; conditions: tau protein aggregate 0.2 μmol/L, thioflavin S 1.5 μmol/L, compound 0.1-2.7 μmol/L, excitation 440 nm
# Experimental: Tau-441 expression vector (provided by Graduate School of Medicine, Osaka City University) was transferred to E. coli (BL21), culturing was carried out, and a tau protein was extracted and purified. Heparin (0.1 mg/mL) was added to the purified tau protein (1 mg/mL), and incubation in a 50 mmol/L MES buffer (pH 6.8, 100 mmol/L sodium chloride, 0.5 mmol/L EGTA) at 37° C. was carried out for 3 days, thus preparing an aggregate. Formation of the tau protein aggregate was confirmed by SDS-PAGE and thioflavin S fluorescence assay.
# A mixed solution (550 μL) of the tau protein aggregate (final concentration […]) thus prepared, thioflavin S (Sigma Aldrich, final concentration 1.5 μmol/L), and compound 1, compound 2, or compound 3 solution at various concentrations (each having final concentrations of 0 to 2.7 μmol/L) was incubated for 30 minutes, and fluorescence spectra at an excitation wavelength of 440 nm were measured using a fluorescence spectrometer (RF-5300PC, Shimadzu Corporation).
# In FIGS. 3 to 5, a is a fluorescence spectrum of a sample (sample I) containing only thioflavin S at 1.5 μmol/L, and b is a fluorescence spectrum of a sample (sample II) that is 0.2 μmol/L of the tau protein aggregate in sample I. In FIG. 3, c is a fluorescence spectrum of a sample that is 0.1 μmol/L of compound 1 in sample II, d is a fluorescence spectrum of a sample that is 0.3 μmol/L of compound 1 in sample II, e is a fluorescence spectrum of a sample that is 0.9 μmol/L of compound 1 in sample II, and f is a fluorescence spectrum of a sample that is 2.7 μmol/L of compound 1 in sample II. In FIG. 4, c is a fluorescence spectrum of a sample that is 0.1 μmol/L of compound 2 in sample II, d is a fluorescence spectrum of a sample that is 0.3 μmol/L of compound 2 in sample II, e is a fluorescence spectrum of a sample that is 0.9 μmol/L of compound 2 in sample II, and f is a fluorescence spectrum of a sample that is 2.7 μmol/L of compound 2 in sample II. […]
# [3] = target: T2, tau protein aggregate; test: Inhibition constant toward tau protein aggregate (thioflavin S competition); assay type: binding; set-up: made in house; host or cells: E. coli BL21; conditions: for Ki ratios of Aβ42/Tau: ratio of Ki Aβ42 aggregate to Ki tau protein aggregate; for Ki: thioflavin S as ligand, tau protein aggregate, read-out: Ki values (Tau in Table 5)
# Experimental: as §1, §2
# [4] = target: T1, Aβ42 aggregate; test: Evaluation experiment of binding to amyloid β (filter radioactivity); conditions: Aβ42 aggregate 30 nmol/L, incubation 3 hours
# Experimental: 0.5 mg of Aβ (1-42) peptide (purchased from Peptide Institute, Inc.) was dissolved in 2 mL of a PBS buffer containing 1 mmol/L of EDTA and incubated at 37° C. for 42 hours, thus preparing an Aβ42 aggregate. A glass tube was charged with a 10 vol % ethanol aqueous solution (900 μL), Aβ42 aggregate (50 μL, final concentration 30 nmol/L), and radioactive iodine-labeled compound 1, radioactive iodine-labeled compound 2, or radioactive iodine-labeled compound 3 (each 50 μL, 0.018-0.097 μCi), and incubation was carried out for 3 hours. B/F separation was carried out using a cell harvester (Brandel, M-24), and the radioactivity on the filter was measured in a γ counter. The proportion (%) of the radioactivity count on the filter relative to the radioactivity count of each sample used was determined, and binding of each compound to the Aβ42 aggregate was evaluated.
# As a control, 4-dimethylamino-4′-iodochalcone (hereinafter, called a chalcone derivative) was prepared in accordance with a method described in the literature (Ono et al., Bioorg Med Chem, 15, 6802-6809, 2007), and the same experiment was carried out (radioactivity count in sample: […]-0.37 kBq (0.023-0.01 μCi)).
# [5] = tested on: phosphorylated tau protein; test: In vitro autoradiography using Alzheimer's disease patient-derived brain slice; assay type: binding, human; conditions: hippocampus slice of Alzheimer's disease patient, 3.07 kBq/mL, 1 hour
# Experimental: A postmortem brain slice (paraffin-embedded slice) of the hippocampus of an Alzheimer's disease patient was purchased from BioChain. The brain slice was deparaffinized, a 10% ethanol-containing PBS solution (3.07 kBq/mL (0.083 μCi/mL)) of radioactive iodine-labeled compound 3 was added thereto, and a reaction was carried out for 1 hour. Subsequently, the sample was washed in sequence with a saturated lithium carbonate 50 vol % ethanol aqueous solution (2 minutes×2), a 50 volt ethanol aqueous solution (2 minutes×2), and purified water (30 seconds×2). The sample was exposed to light on an imaging plate for 48 hours, and analyzed using a bioimaging analyzer (model: BAS-5000, Fuji Photo Film Co., Ltd.). Furthermore, an adjacent slice was stained by an anti-phosphorylated tau protein antibody (AT8, Thermo).
# [6] = mice
# Experimental: Mice were decapitated after 2, 10, 30, and 60 minutes, and then each organ was then removed after blood collection, and radiation counts were measured in a γ counter.
# [7] = target: T2, tau protein aggregate; conditions: tau 0.37 μmol/L, incubated 1 to 1.5 hours, PD-10 column
# Experimental: Mixed solutions of a tau protein aggregate (final concentration 0.37 μmol/L, prepared in Example 9) or an non-aggregated tau protein (final concentration 0.37 μmol/L) and radioactive iodine-labeled compound 1 (2.0 kBq (0.055 μCi)), radioactive iodine-labeled compound 2 (20 kBq (0.55 μCi)) or radioactive iodine-labeled form 3 (2.0 kBq (0.055 μCi)) were incubated for 1 hour to 1.5 hours, and then subjected to size exclusion chromatography (PD-10 column (GE Healthcare Japan), eluent: phosphate buffered-saline (PBS)). Subsequently, the radioactivity of an eluted fraction of the tau protein aggregate or the non-aggregated tau protein was measured in a γ counter.
# [8] = 2 minutes after tail vein administration
# [9] = 10 minutes after tail vein administration
# [10] = 30 minutes after tail vein administration
# [11] = 60 minutes after tail vein administration
# T2 sequence (P10636 1-441 isoform P10636-8): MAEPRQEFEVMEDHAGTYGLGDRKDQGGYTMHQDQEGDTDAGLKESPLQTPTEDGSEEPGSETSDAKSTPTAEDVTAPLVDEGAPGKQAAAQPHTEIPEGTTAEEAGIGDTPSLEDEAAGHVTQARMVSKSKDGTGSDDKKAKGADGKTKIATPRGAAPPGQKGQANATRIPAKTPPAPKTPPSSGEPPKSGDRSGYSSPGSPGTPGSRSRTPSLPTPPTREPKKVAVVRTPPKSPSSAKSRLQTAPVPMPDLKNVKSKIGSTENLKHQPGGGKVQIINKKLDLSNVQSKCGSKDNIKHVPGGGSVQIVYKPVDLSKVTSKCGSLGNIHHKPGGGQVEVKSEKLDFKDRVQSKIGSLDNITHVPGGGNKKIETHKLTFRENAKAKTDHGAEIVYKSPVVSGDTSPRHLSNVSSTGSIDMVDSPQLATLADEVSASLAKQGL
# T1 sequence (P05067 672-713 limits assumed): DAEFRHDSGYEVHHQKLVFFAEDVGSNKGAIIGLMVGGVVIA
structure (smiles),measurement,setting,value
"CCOC(=O)CN1C(=O)/C(=C/c2ccc(-c3cccc(I)c3)o2)SC1=S [Compound 1, (Z)-ethyl-2-(5-((5-(3-iodophenyl)furan-2-yl)methylene)-4-oxo-2-thioxothiazolidin-3-yl)acetate]",Ki,[1],0.752 µM
same,Inhibition of binding of tau protein aggregate to thioflavin S (fluorescence spectra),[2],inhibition of binding of a tau protein aggregate to thioflavin S
same,Ki ratios of Aβ42/Tau,[3],1.54
same,Ki,[3],0.489 µM
"CCOC(=O)CN1C(=O)/C(=C/c2ccc(-c3cccc(I)c3)o2)NC1=S [Compound 2, (Z)-ethyl-2-(4-((5-(3-iodophenyl)furan-2-yl)methylene)-5-oxo-2-thioxoimidazolidin-1-yl)acetate]",Ki,[1],0.864 µM
same,Inhibition of binding of tau protein aggregate to thioflavin S (fluorescence spectra),[2],inhibition of binding of a tau protein aggregate to thioflavin S
same,Ki ratios of Aβ42/Tau,[3],5.57
same,Ki,[3],0.155 µM
"O=C1/C(=C/c2ccc(-c3cccc([125I])c3)o2)NC(=S)N1CCc1c[nH]cn1 [Radioactive iodine-labeled compound 3, (Z)-3-(2-(1H-Imidazol-4-yl)ethyl)-5-((5-(3-(^125I)iodophenyl)furan-2-yl)methylene)-2-thioxoimidazolidin-4-one]",Binding to the Aβ42 aggregate (proportion of radioactivity count on the filter),[4],significantly lower
same,Radioactivity distribution on brain slice vs anti-phosphorylated tau antibody (AT8) staining,[5],coincided with the distribution (FIG. 10b) of the phosphorylated tau protein
same,Amount of radioactivity in organ: Blood,[6]; [8],8.16 ± 1.21 % ID/g
same,Amount of radioactivity in organ: Blood,[6]; [9],2.77 ± 0.21 % ID/g
same,Amount of radioactivity in organ: Blood,[6]; [10],2.11 ± 0.28 % ID/g
same,Amount of radioactivity in organ: Blood,[6]; [11],1.48 ± 0.27 % ID/g
same,Amount of radioactivity in organ: Brain,[6]; [8],1.54 ± 0.10 % ID/g
same,Amount of radioactivity in organ: Brain,[6]; [9],1.30 ± 0.12 % ID/g
same,Amount of radioactivity in organ: Brain,[6]; [10],0.66 ± 0.08 % ID/g
same,Amount of radioactivity in organ: Brain,[6]; [11],0.25 ± 0.02 % ID/g
same,Amount of radioactivity in organ: Heart,[6]; [8],8.48 ± 0.97 % ID/g
same,Amount of radioactivity in organ: Heart,[6]; [9],2.78 ± 0.19 % ID/g
same,Amount of radioactivity in organ: Heart,[6]; [10],1.73 ± 0.18 % ID/g
same,Amount of radioactivity in organ: Heart,[6]; [11],1.30 ± 0.37 % ID/g
same,Amount of radioactivity in organ: Intestine,[6]; [8],2.55 ± 0.16 % ID/g
same,Amount of radioactivity in organ: Intestine,[6]; [9],7.41 ± 1.21 % ID/g
same,Amount of radioactivity in organ: Intestine,[6]; [10],17.3 ± 1.67 % ID/g
same,Amount of radioactivity in organ: Intestine,[6]; [11],23.6 ± 2.39 % ID/g
same,Amount of radioactivity in organ: Kidney,[6]; [8],12.5 ± 0.76 % ID/g
same,Amount of radioactivity in organ: Kidney,[6]; [9],7.34 ± 0.70 % ID/g
same,Amount of radioactivity in organ: Kidney,[6]; [10],4.97 ± 0.71 % ID/g
same,Amount of radioactivity in organ: Kidney,[6]; [11],3.37 ± 0.30 % ID/g
same,Amount of radioactivity in organ: Liver,[6]; [8],35.0 ± 2.27 % ID/g
same,Amount of radioactivity in organ: Liver,[6]; [9],33.3 ± 1.41 % ID/g
same,Amount of radioactivity in organ: Liver,[6]; [10],27.2 ± 2.05 % ID/g
same,Amount of radioactivity in organ: Liver,[6]; [11],22.8 ± 2.13 % ID/g
same,Amount of radioactivity in organ: Lung,[6]; [8],11.4 ± 1.55 % ID/g
same,Amount of radioactivity in organ: Lung,[6]; [9],4.39 ± 0.42 % ID/g
same,Amount of radioactivity in organ: Lung,[6]; [10],3.00 ± 0.27 % ID/g
same,Amount of radioactivity in organ: Lung,[6]; [11],2.03 ± 0.14 % ID/g
same,Amount of radioactivity in organ: Pancreas,[6]; [8],3.30 ± 0.86 % ID/g
same,Amount of radioactivity in organ: Pancreas,[6]; [9],2.15 ± 0.23 % ID/g
same,Amount of radioactivity in organ: Pancreas,[6]; [10],1.15 ± 0.18 % ID/g
same,Amount of radioactivity in organ: Pancreas,[6]; [11],0.86 ± 0.08 % ID/g
same,Amount of radioactivity in organ: Spleen,[6]; [8],9.23 ± 0.63 % ID/g
same,Amount of radioactivity in organ: Spleen,[6]; [9],10.9 ± 2.78 % ID/g
same,Amount of radioactivity in organ: Spleen,[6]; [10],8.51 ± 2.68 % ID/g
same,Amount of radioactivity in organ: Spleen,[6]; [11],8.46 ± 2.57 % ID/g
same,Amount of radioactivity in organ: Stomach,[6]; [8],1.33 ± 0.25 % ID/g
same,Amount of radioactivity in organ: Stomach,[6]; [9],2.67 ± 1.59 % ID/g
same,Amount of radioactivity in organ: Stomach,[6]; [10],4.55 ± 1.28 % ID/g
same,Amount of radioactivity in organ: Stomach,[6]; [11],7.45 ± 5.07 % ID/g
same,Radioactivity of eluted fraction: aggregated tau vs non aggregated tau vs buffer,[7],specifically binding to a tau protein aggregate
